Positions of bridges follow the written chain, without caps; N, C: chain ends. No end group written: not given here. *: point of attachment. DOTA = O=C(O)CN1CCN(CC(=O)O)CCN(CC(=O)*)CCN(CC(=O)O)CC1
Assays:
[1] = test system: acute pulmonary aspergillosis; conditions: i.v. approx. 80 μCi per mouse
Experimental: FIG. 2 illustrates gamma scintography of mice injected with the ^111In-labeled peptide of FIG. 1. […] Arrows indicate radiotracer in the lung.
Gamma scintography was performed at 30 and 120 minutes after injection. […] Experiments were performed 1 to 2 days after infection. The same mouse is shown for each test type at 30 and 120 minutes. Arrows in FIG. 2 indicate the accumulated radiotracer. Radiotracer accumulation in the lungs of the control mouse was not visible at 120 minutes after injection. Increased radiotracer could be seen as little as 5 minutes after injection.

hyphae of Rhizopus = conditions: Lionakis et al. 2005; cited from earlier work
hyphae of Aspergillus = conditions: Lionakis et al. 2005; cited from earlier work
Aspergillus = assay: autoradiography and GMS histology of excised lung slices; format: in vivo, mice
Experimental: FIG. 5B illustrates autoradiography of the lungs of mice injected with the ^68Ga-labeled peptide of FIG. 4.
FIG. 6 illustrates histology and autoradiography of excised lung tissue from a mouse injected with Ga-68-labeled peptide of FIG. 4. The mouse had acute pulmonary aspergillosis.
Lungs were removed from the mice after the 90 minute imaging session and snap frozen, then cut into 20 μm slices. These slices were air-dried and exposed to a phosphors screen. The screen was exposed for 10 minutes.
To confirm that tissue labeled with the imaging agent was actually infected with Aspergillus, histology of lung tissue labeled by the imaging agent in an infected mouse was performed. The corresponding gamma scintogram and histology data are show in FIG. 6. […] Note the black-stained organisms correlated with distribution of radioactivity in autoradiography (lower left image) of excised lung tissue from a mouse injected with Ga-68-labeled peptide of FIG. 4.

[2] = test system: acute pulmonary aspergillosis; assay: μ-PET imaging of mice with acute pulmonary aspergillosis and normal mice; format: in vivo; conditions: μ-PET at 30 and 90 minutes, i.v. approx. 200 μCi per mouse, not seen in normal mice
Experimental: FIG. 5A illustrates μ-PET images of mice injected with the ^68Ga-labeled peptide of FIG. 4. […] Arrows indicate accumulated imaging agent.
Mice weighing approximately 20 g each were injected intravenously with the imaging agent of FIG. 4 to provide radioisotope at a level of approximately 200 μCi per mouse. μ-PET imaging was performed at 30 and 90 minutes after injection. Control mice had no fungal infection, while infected mice had acute pulmonary aspergillosis. μ-PET images of normal and infected mice are shown in FIG. 5A. Arrows in FIG. 5A indicate the accumulated radiotracer.

Q: Which “radiotracer accumulation in the lungs of the control mouse” value ([1]; control mouse without fungal infection, 120 minutes after injection) does the source give for “^111In-DTPA-Benzyl-NH-Succinic Acid-CGGRLGPFC [imaging agent of FIG. 1]” here?
A: not visible

Q: And the “time after injection at which increased radiotracer could be seen” value ([1]; gamma scintography)?
A: 5 min

Q: With c(CGGRLGPFC) (disulfide 1-9 (inferred)) as the substance, how does the “binding in vitro to the hyphae of Rhizopus” value (hyphae of Rhizopus) read?
A: bind in vitro

Q: What about the “binding in vitro to the hyphae of Aspergillus” value (hyphae of Aspergillus) of the same substance?
A: bind in vitro

Q: With “^68Ga-DOTA-CGGRLGPFC ({DOTA}-CGGRLGPFC; not fully specified (bridges); also: 68Ga chelated by DOTA, cyclic, type of ring bond not given here) [imaging agent of FIG. 4]” as the substance, how does the “radioactivity in lung slices of the infected mouse” value (Aspergillus; autoradiography of 20 μm slices, lungs removed after the 90 minute imaging session, infected mouse) read?
A: Heterogeneous distribution of radioactivity

Q: What about the “radioactivity in lung slices of the normal mouse” value (Aspergillus; autoradiography of 20 μm slices, lungs removed after the 90 minute imaging session, normal mouse) of the same substance?
A: Little radioactivity

Q: And the “relation of GMS-stained Aspergillus organisms to distribution of radioactivity in autoradiography” value (Aspergillus; excised lung tissue of an infected mouse, FIG. 6)?
A: correlated

Q: What about the “radiotracer accumulation in the lungs of infected mice” value [2] of the same substance?
A: can be clearly seen

Q: Which “binding in vitro to the hyphae of Rhizopus” value (hyphae of Rhizopus) does the source give for c(CWGHSRDEC) (disulfide 1-9 (inferred)) here?
A: bind in vitro

Q: What about the “binding in vitro to the hyphae of Aspergillus” value (hyphae of Aspergillus) of the same substance?
A: bind in vitro

Source: patent US20100034739A1, “Fungus-Specific Imaging Agents” (priority 2006, published 2010)
